Laboratory results published in patent US12077778B2, “Methods of generating human inner ear sensory epithelia and sensory neurons” (INDIANA UNIVERSITY RESEARCH AND TECHNOLOGY CORPORATION, priority 2015, dated 2024).

Experiments:
Format in all cases: cell-based, human
OEPD-induced aggregates = experiment: qPCR of PAX8/PAX2 expression after WNT and FGF signaling modulation, days 8-10; conditions: one exploratory experiment
Procedure: Thus, we changed strategies by lengthening the initial culture phase to 12 days (with addition of fresh media on day 8) and testing the effect of transitioning the aggregates to Matrigel™ droplets.
Quantitative PCR. Analysis was performed as previously described on an ABI PRISM 7900HT Sequence Detection System (Applied Biosystems) or a Bio-Rad CFX96 quantitative PCR machine (Bio-Rad)^6. Data were normalized to L27 expression (internal control) and the fold change was calculated relative to Ct values from d0 WA25 aggregates using the ΔΔCt method. Unless stated otherwise, data represent at least 3 separate biological samples from separate experiments. All indicators of statistical significance refer to comparisons between a given condition and the control group. Refer to Table 4 for primer details.

[1] = system: Matrigel-embedded hPSC aggregates; experiment: Otic pit/vesicle formation in Matrigel-embedded day 12 aggregates treated with Wnt agonist
Description: To promote PAX2 expression and vesicle formation, we began testing various signaling modulators (FIGS. 12A-12C). […] We suspected that extracellular matrix could provide structural support for vesicle formation; thus, we transferred day 12 aggregates to Matrigel droplets in a minimal media (FIG. 4A). In these cultures, we observed radial production of migratory cells, but no vesicle-like structures or PAX2^+ cells were apparent (FIG. 2B). Wnt activation seems to be essential for otic, but not epibranchial development, in vivo and can enhance the production of mouse inner ear organoids in vitro^4,19-21. Remarkably, in 90.9±5.2% of Matrigel®-embedded aggregates treated with a Wnt signaling agonist, CHIR99021, between days 12-16 (n=84, 7 experiments), we witnessed epithelial protrusions reminiscent of the otic pits that precede vesicle development in vivo (FIG. 4C). We determined that the otic pit-like structures were PAX2^+ PAX8^+ SOX2^+ SOX10^+ JAG1^+, confirming otic identity (FIGS. 4D-4H). […] The aggregates were resuspended in ice cold undiluted GFR Matrigel and placed in approximately 25 μl droplets on the surface of a 100 mm bacterial culture plate. After at least 30 minutes of incubation at 37° C., the droplets were bathed in 10 ml of OMNI containing 3 μM CHIR99021. For non-droplet otic induction, the aggregates were washed and plated individually into each well of a 24-well low cell adhesion plate in OMNI containing 3 μM CHIR and 1% GFR Matrigel. After 18 days of differentiation, the CHIR was removed from the medium by washing and the droplet aggregates were moved to a floating culture. Droplets were carefully dislodged using a wide-mouth […] tip and transferred to 75 ml of fresh OMNI in a 125 ml disposable spinner flask (Corning). Spinner flasks were maintained on an in-incubator stir plate (Thermo Scientific) at 65 RPM for up to 180 days of differentiation. For some experiments, the aggregates were maintained in individual wells of 24-well low-cell adhesion plates in 1 ml of OMM on an in-incubator orbital shaker (Thermo Scientific) for up to 140 days. […]

hPS cell aggregates = experiment: Otic placode-like cell induction by CHIR treatment on day 8; conditions: CHIR 3 μM added on day 8
Procedure: hPSC differentiation. To start differentiation, hPSC cells were dissociated with StemPro Accutase (Invitrogen) and distributed, 5,000 cells per well, onto 96-well V-bottom plates in E8 medium containing 20 μM Y-27632 (Stemgent) and Normocin. Following a 48 hour incubation, the aggregates were transferred to 96-well U-bottom plates in 100 μl of Chemically Defined Medium (CDM) containing 4 ng ml^−1 FGF-2 (Peprotech), 10 μM SB-431542 (Stemgent), and, for some experiments, 2.5 ng ml^−1 BMP4 (Stemgent), and 2% Growth Factor Reduced (GFR) Matrigel (Corning) to initiate non-neural induction—i.e. differentiation day 0. CDM contained a 50:50 mixture of F-12 Nutrient Mixture with GlutaMAX (Gibco) and Iscove's Modified Dulbecco's Medium with GlutaMAX (IMDM; Gibco) additionally supplemented with 0.5% Bovine Serum Albumin (BSA), 1× Chemically Defined Lipid Concentrate (Invitrogen), […] (Sigma), 15 μg ml^−1 Transferrin (Sigma), 450 μM Mono-Thioglycerol, and Normocin (see Table 1 for a detailed formulation). […] For some experiments, CDM containing a 18 μM CHIR99021 (3 μM final concentration; Stemgent) was added to the pre-existing 125 μl of media in each well—we determined that this treatment is optional for inner ear organoid production, but may improve induction of otic placode-like cells. […]

Compound: Cc1c[nH]c(-c2cnc(NCCNc3ccc(C#N)cn3)nc2-c2ccc(Cl)cc2Cl)n1 [CHIR99021]
- PAX2 expression (qPCR) compared to DMSO controls (OEPD-induced aggregates): only had a modest positive or negative impact on PAX2 expression
- aggregates with epithelial protrusions reminiscent of otic pits ([1]; CHIR99021 between days 12-16, n=84, 7 experiments): 90.9±5.2%
- PAX8+ PAX2+ SOX10+ vesicles evaginating from the outer epithelium ([1]; CHIR between days 12-18): 10-30 vesicles per aggregate
- aggregates with otic vesicle formation ([1]; Matrigel embedding with continued CHIR, days 12-18, >100 aggregates, four independent experiments): > 95%
- PAX2+ cells by day 12 (hPS cell aggregates): induces small patches of PAX2+ cells
